Laboratory results as given in patent US20260176636A1, “APTAMER-DIRECT INHIBITOR CONJUGATES AND METHODS OF USING THE SAME” (Duke University, priority 2022, published 2026).
Entries after “also recorded” stand apart in the source; their conditions may differ. [invdT] = inverted (3'-3') thymidine

Legend:
[1] = target: T1, thrombin (FVIII activation) (Homo sapiens, UniProt P00734); assay: Thrombin cleavage of FVIII (SDS-PAGE); type: biochemical; details: 100 nM inhibitor, 1 nM thrombin, 100 nM FVIII
T1 construct: Human alpha thrombin, human factor Xa, and human fibrinogen were purchased from Haematologic Technologies Inc; purchased Haematologic Technologies Inc
Method: Thrombin (final concentration 1 nM) was incubated in the absence or presence of thrombin inhibitors (final concentration 100 nM) at 37° C. for 5 min following by addition of recombinant human FVIII (final concentration 100 nM). Sample were collected at 1, 2, 5, 10, 20, 30, 40, and 60 min of reaction and quenched in SDS loading buffer and heating at 95° C. for 5 min. The digestion products at different time points are then characterized on a 4-20% PAGE gel. Thrombin's activity on activating FVIII in the absence and presence of thrombin inhibitors were quantified using the time-course concentration of intact light chain under thrombin digestion determined by band intensity. The assay was performed in duplicates.

Human alpha thrombin = Human alpha thrombin (Homo sapiens, UniProt P00734); assay: Fluorogenic activity assay (fluorescent peptidyl substrate cleavage), thrombin; details: for maximum inhibition of thrombin activity: thrombin 0.5 nM, fluorogenic substrate
Method: Initial velocity studies of fluorescent peptidyl substrate cleavage by thrombin were used to assess protease inhibition by the EXACT inhibitor (FIG. 1c).
Fluorogenic activity assay: All reagents were freshly reconstituted in the reaction buffer (20 mM HEPES, 150 mM NaCl, and 2 mM CaCl2), 0.02%, Tween 20, pH 7.5) before the assay. 10 μL of thrombin or factor Xa (final concentration 0.5 nM) were first incubated with 5 μL of inhibitor, inhibitor/antidote mixture, or buffer control on a 384-well opaque plate for 5 min at 28° C. 10 μL of fluorogenic substrate (final concentration 50 μM) was then added to the mixture and the time-course fluorescence (λex=352 nm, λem=470 nm) of the sample were recorded every minute for 15 min at 28° C. using a SpectraMax i3 microplate reader (Molecular Devices). The catalytic rate of the protease was quantified by the slope from linear regression of the time-dependent fluorescence intensity and normalized with the sample containing no inhibitor as 100%. Each experiment was performed in triplicates.

thrombin [2] = target: T2, thrombin (Homo sapiens, UniProt P00734); details: read-out: KD, thrombin anion binding exosite 2; cited from earlier work
normal human plasma [3] = assay: Thrombin time (TT) plasma coagulation assay; details: for effect on TT, result in words: normal human plasma
Method: (§1) Plasma coagulation assays: Thrombin time (TT), prothrombin time (PT), and activated partial thromboplastin time (aPTT) assays were performed in citrated normal human plasma on a hemostasis coagulation analyzer (Diagnostica Stago). For TT, 5 μL of inhibitors in the reaction buffer were mixed with 100 μL of plasma and incubated at 37° C. for 5 min. 50 μL of thrombin (6 NIH units/ml) in the reaction buffer was then added to initiate clotting. For PT, 5 μl of inhibitors in the reaction buffer were mixed with 50 μL of plasma and incubated at 37° C. for 5 min. 100 μL of TriniCLOT PT Excel S reagent was then added to initiate clotting. For aPTT, 5 μL of inhibitors in the reaction buffer were mixed with 50 μL of plasma and incubated at 37° C. for 5 min, 50 μL of TriniCLOT aPTT S reagents was then added followed by another 5 min incubation at 37° C. Finally, 50 μL of 20 mM CaCl2) was added to initiate clotting. To characterize antidote reversal of HD22-7A-DAB in the above assays, 5 μL AO2 (finial concentration 2 μM) in the reaction buffer was added after 5-min incubation between plasma and HD22-7A-DAB, followed by another 5 min of incubation before the next step. All assays are performed induplicates.

normal human plasma [4] = assay: Activated partial thromboplastin time (aPTT) plasma coagulation assay; details: normal human plasma; comparison with DAB at 500 nM
Method: as §1

normal human plasma [5] = assay: Prothrombin time (PT) plasma coagulation assay; details: normal human plasma; comparison with DAB at 500 nM
Method: as §1

[6] = target: T3, thrombin (cleavage of fibrinogen) (Homo sapiens, UniProt P00734); assay: Fibrinogen turbidity assay; type: biochemical; details: 50 nM inhibitor, 2.5 nM thrombin, 0.8 mg/mL fibrinogen, absorbance 550 nm
T3 construct: Human alpha thrombin, human factor Xa, and human fibrinogen were purchased from Haematologic Technologies Inc; purchased Haematologic Technologies Inc
Method: To test the kinetics of antidote reversal, 1 μL AO2 (final concentration 2 μM) was added to the reaction 10 min after fibrinogen addition. The maximum absorption over the period of assay in the absence and presence of different inhibitors were determined. The time to reach 10%, 50%, and 90% maximum absorption increase from the start point were calculated and recorded as lag time, t50, and t90, respectively, for each inhibitor to evaluate the kinetic of fibrinogen activation. Each experiment was performed in triplicates to determine the mean and standard deviation of each parameter.

human thrombin = details: approximately 1 μM; cited from earlier work
thrombin [7] = target: T2, thrombin; assay: Bio-layer interferometry; type: binding; design: Human alpha thrombin, human factor Xa, and human fibrinogen were purchased from Haematologic Technologies Inc; purchased Haematologic Technologies Inc
Method: Bio-layer interferometry: Bio-layer inferometry was performed using Octet R8 BLI System (Sartorius). Briefly, 3.3 nM of biotinylated HD22-7A-DAB, HD22-7A-NH2, HD23-7A-DAB, and HD23-7A-NH2 were immobilized to Octet streptavidin biosensors (Sartorius). […] A 30-min dissociation was performed in buffer containing 200 nM HD22-7A-DAB. The existence of free HD22-7A-DAB in dissociation buffer prevents re-binding of thrombin and provides more accurate koff measurements.

whole human blood = assay: Active clotting time (ACT)
Method: Active clotting time (ACT): Citrated blood (72 μL) freshly collected from heathy donors were incubated with 6 μL inhibitors reconstituted in the reaction buffer at room temperature for 3 min following addition of 2.1 μL CaCl2) (245 mM). The blood mixture was then immediately analyzed on an ACT+ cuvette (Accriva Diagnostics) using a Hemochron Jr Signature (Instrumentation Laboratory). The assay was performed with a N value of five. One-way ANOVA test was used to compare between two sets of data.

[8] = Plasma stability (nuclease degradation, denaturing PAGE); type: in vitro ADME; details: 500 nM conjugate in human plasma (10 U/mL heparin), 37° C.
Method: FIG. 16. End modification of aptamer for higher plasma stability. (a) 3′ modification of HD22-DAB conjugate with invdT or cholesterol modification retain high inhibition potency to thrombin in fluorogenic substrate assay. (b) End modification of HD22-7A-DAB with 3′ invdT or cholesterol prolong […] in plasma. Plasma was prepared from whole blood collected from healthy volunteers that was supplemented with 10 U/mL of heparin to prevent coagulation. 500 nM of aptamer-drug conjugate were incubated with 200 μL of the plasma at 37° C. 20 μL of plasma reaction was collected at different time point (0, 10, 30, 60, 120, 360 min) and immediately vortexed with 100 μL phosphate buffer saline, 100 μL chloroform, and 200 μL methanol to quench nucleases. A mixture of 100 μL water and 100 μL chloroform was further added to extract the nucleic acids. The mixture was vortexed and centrifuged 500 rcf×20 min, and the aqueous phase containing nucleic acids was collected, lyophilized, reconstituted in water, and analyzed on a 15% polyacrylamide gel containing 7M urea.

HD22: thrombin exosite II-binding DNA aptamer, SEQ ID NO: 1 [reference compound]
inhibition of thrombin-mediated FVIII cleavage, result in words [1]: showed an inhibitory effect | maximum inhibition of thrombin activity (Human alpha thrombin): 30% | Kd (thrombin [2]): 0.5 nM | effect on TT, result in words (normal human plasma [3]): minimally affected TT | effect on aPTT, result in words (normal human plasma [4]): no anticoagulant effect | effect on PT, result in words (normal human plasma [5]): no anticoagulant effect | inhibition of thrombin-mediated fibrin clot formation, result in words [6]: did not inhibit this thrombin activity

Tog25t: thrombin exosite II-targeting RNA aptamer, SEQ ID NO: 12 (GGGAACAAAGCUGAAGUACUUACCC; [invdT] at 3' end, other sugars and backbone not given here; further chemistry not fully specified)
effect on aPTT clotting time (human thrombin): modest extension in aPTT clotting time

HD22-7A-DAB
inhibition of thrombin-mediated FVIII cleavage, result in words [1]: no proteolysis was observed for over one hour | koff for thrombin binding (thrombin [7]; dissociation in buffer with 200 nM HD22-7A-DAB): 0.0021 s⁻¹ | kon for thrombin binding (thrombin [7]; immobilized biotinylated inhibitor): 3.9e+07 M⁻¹ s⁻¹ | ACT compared with 5 U/mL UFH (whole human blood; 1 μM): comparable to | ACT compared with 5 U/mL UFH (whole human blood; 2 μM): significantly higher than | ACT (measurable range of analyzer) (whole human blood; 2 μM, whole blood): > 999 s | ACT (whole human blood; 1-μM concentration, whole human blood): 624 s | effect on ACT, result in words (whole human blood; whole human blood): dose dependently prolonged ACT; also recorded: significantly higher than the ACTs that followed the addition of DAB, HD22, or their equimolar mixture | thrombin inhibition at a concentration of 1 nM (Human alpha thrombin; 1 nM inhibitor): completely inhibits thrombin activity | thrombin inhibition, result in words (Human alpha thrombin; fluorogenic substrate assay): significantly higher inhibitory effect of thrombin than DAB, HD22, or their equimolar mixture | potency higher than DAB (Human alpha thrombin; ratio of IC50 against thrombin): 500 fold | maximum inhibition of thrombin activity (Human alpha thrombin): > 99% | TT clotting time (normal human plasma [3]; 31 nM): > 999 s | effect on TT at inhibitor concentration lower than the added thrombin (normal human plasma [3]; below 13.4 nM): limited effect on TT | TT clotting time (measurable range of analyzer) (normal human plasma [3]; concentration exceeds 16 nM): > 999 s | effect on TT, result in words (normal human plasma [3]): rivals UFH | half-life in plasma [8]: around 1 hour | effect on aPTT, result in words (normal human plasma [4]): significantly longer than the same concentration of DAB; also recorded: weaker anticoagulant than UFH | effect on PT, result in words (normal human plasma [5]): significantly longer than the same concentration of DAB; also recorded: rivals UFH | inhibition of thrombin-mediated fibrin clot formation, result in words [6]: completely inhibited
